Where two headings read alike, the source gives them in different places.
Tests used:
[1] = tested on: normal human melanocytes or fibroblasts; test: Proliferation of normal human melanocytes or fibroblasts; assay type: cell-based
EZH2 transcription = test: Ability to decrease EZH2 mRNA level in A375 (dose-response, quantitative PCR); assay type: cell-based; conditions: Homo sapiens, A-375, 96 h; A375 cells, incubated 4 days; read-out: IC50 (concentration necessary to obtain 50% of EZH2 transcription activity)
Experimental: Typically, 30000-50000 cells were plated in six-well culture plates and incubated 24 h later with increasing concentration of NIK inhibitors or vehicle. Cells were incubated with the inhibitors for 4 days prior to harvesting for RNA extraction and PCR. Total RNA was isolated from cells using the RNAeasy minikit (Qiagen) according to the manufacturer's procedure. Reverse transcription was performed using the AMV reverse transcription system (Promega), and quantitative PCR was performed with Power Sybr green (Applied Biosystems, Life Technologies, Grand Island, N.Y.) following the manufacturer's instructions. The PCR was carried out on a Step One plus Real-Time PCR system (Applied Biosystems). All analyses were done in triplicate, and a melting curve analysis was performed to control for product quality and specificity. Expression levels were calculated using the comparative method of relative quantification, with SB34 as a normalizer. The data were analyzed for statistical significance using Student's t-test. The results are presented as the mean±SEM relative to the control. Primers were obtained from primer bank or primer depot (http://pga.mgh.harvard.edu/primerbank/, https://primerdepot.nci.nih.gov), and their specificity was verified using primer blast (http://www.ncbi.nlm.nih.gov/tools/primer-blast/).
Here IC50 represents the concentration necessary to obtain 50% of EZH2 transcription activity.

B16 melanoma cells = test: Established subcutaneous B16 melanoma in C57Bl6 mice; assay type: in vivo
Experimental: FIG. 3. Compound 5 treatment is effective when used alone in reducing tumor growth in vivo and potentiates the anti-PD1 immune response in C57Bl6 mice subcutaneously injected with B16 melanoma cells. B16 cells were injected subcutaneously and the tumors were let to grow until an average volume of 100 mm^3 was reached. The mice were then sorted into four groups with similar average tumor volume and standard deviation. Treatment with compound 5 (10 mg/kg) or control (DMSO) was given by intraperitoneal injection every day. Anti-PD1 antibodies (125 μg/mouse) was given every other day alone or combined with daily injection of compound 5. Number of mice for each treatment group=8.
(§1) 0.5×10^6 cells in 100 μL PBS were subcutaneously injected into 4-week-old female C57Bl/6 mice (for the B16 experiment) or Balb/c mice (for the CT26 experiments). DZNEP is an inhibitor of the catalytic activity of EZH2 and was used as an additional control.
The inventors then asked whether compound 5 was able to increase the survival rate of mice with already established tumor and, if that was the case, also in this situation was able to synergize with anti-PD1 treatment. They thus decided to use the model B16 melanoma cells in C57Bl6 mice. B16 cells were again injected subcutaneously and the tumors were let to grow until an average volume of 100 mm3 was reached. […]

A375 cells = test: A375 cell proliferation assay (trypan blue exclusion); assay type: cell-based; conditions: Homo sapiens, A-375, treated/untreated cell number; for activity at 1 µM: A375, 1 μM; for activity at 10 µM: A375, 10 μM
Experimental: Cells were counted using a Malassez chamber. The average and standard deviation were calculated from triplicate experiments. Antiproliferative effects were evaluated by trypan blue exclusion assay. Briefly, cells were seeded into 12-well plate and grown in media supplemented with indicated compound at 1 or 10 μM for 48 h or 96 h. Cells were washed with PBS and detached by trypsinization, collected and colored by trypan blue. Dead and living cells were counted and proliferation was calculated as follow: Proliferation (%)=[(treated cell number/untreated cells number)*100].

normal human melanocyte = test: Melanocyte viability assay (trypan blue exclusion); assay type: cell-based; conditions: 96 h
Experimental: (§2) Cell viability effects were evaluated by trypan blue exclusion assay. Briefly, cells were seeded into 12-well plate and grown in media supplemented with indicated compound at 10 μM for 96 h. Cells were washed with PBS and detached by trypsinization, collected and colored by trypan blue. Dead and living cells were counted and cell viability was calculated as follow: Viability (%)=100−[(dead cell number/total cells)*100].

normal human fibroblast = test: Fibroblast viability assay (trypan blue exclusion); assay type: cell-based; conditions: 96 h
Experimental: as §2

[2] = Tolerability in treated CT26 tumor-bearing mice; assay type: in vivo; conditions: 10 mg/kg intraperitoneal
Experimental: In order to evaluate the new approach in different types of cancer, compound 5 was tested in colorectal cancer cells. CT26 cells were subcutaneously injected into syngeneic mice. After 3 days, the mice were treated intraperitoneally with DZNEP, compound 5, and anti-PD1 as monotherapies and combined. Additional treatments in which the mice received DZNEP or compound 5 plus anti-PD1 with an anti-CD8 antibody added to neutralize the T-cell response were included. […] Signs of tumor regression and tumor-free mice were even observed. […] The number of M1 macrophages and the percentage of M1 macrophages among the total macrophage population were increased in all the treated mice, especially in the mice that received the combination treatments (FIG. 2C). Each of the treatments increased the numbers and activation of DCs and the numbers of CD8+ and CD4+ cells infiltrating the tumors (FIG. 2D). […] Finally, CD3+ T-cells were isolated by negative selection from the spleens of the treated mice and cocultured with naïve CT26 cells.

CT26 cells = test: Spleen CD3+ T-cells of treated mice cocultured with naïve CT26 cells; assay type: in vivo; conditions: coculture 24 or 48 h
Experimental: 1 mg/kg DZNEP and 10 mg/kg compound 5 were used for the subsequent experiments. Tridimensional measurements were performed daily, and the tumor volume was expressed as mm^3. […] Freshly collected tumors were dissociated and stained for immune-cell infiltrate using a flow cytometer. CD3+ T cells from spleen tissue were negatively selected using myltennyi magnetic columns and put in contact with naïve CT26 cells for 24 or 48 h. The CT26 cells were subsequently stained with DAPI (0.5 μg/ml, Molecular Probes, Grand Island, N.Y., USA). The T-cells were stained with CD8, perforin, and granzyme B antibodies and analyzed immediately by flow cytometry using a MACS-Quant Analyzer (Miltenyi Biotec, Paris, France).
Spleens were extracted and disaggregated, and the cells were resuspended in PBS. T-cells were isolated by CD3 negative selection to avoid activation. […] The flow-through containing the enriched fraction of CD3 cells was collected and analyzed by flow cytometry to determine the yield of the enrichment (CD3 cells constituted a minimum 70% of the total cells collected).

CT26 colon-cancer cells = test: Subcutaneous CT26 colon-cancer tumors in Balb/c mice; assay type: in vivo; conditions: compound 5 10 mg/kg, DZNEP 1 mg/kg, FIG. 2A
Experimental: A. Tumor progression in Balb/c mice subcutaneously injected with CT26 cells (0.5×10^6). After 3 days, treatment with compound 5 (10 mg/kg) or DMSO was given by intraperitoneal injection every other day starting 3 days after the first injection. Two groups of mice (with either DMSO or compound 5 treatment) were treated with anti-PD1 antibody injected subcutaneously every other day. Number of mice for each treatment group=10.
as §1
1 mg/kg DZNEP and 10 mg/kg compound 5 were used for the subsequent experiments. Tridimensional measurements were performed daily, and the tumor volume was expressed as mm^3. […] The T-cells were stained with CD8, perforin, and granzyme B antibodies and analyzed immediately by flow cytometry using a MACS-Quant Analyzer (Miltenyi Biotec, Paris, France).
Tumors were extracted and disaggregated using […] strainers. […] FoxP3 was detected by cell intranuclear staining employing the BD Pharmingen™ Mouse Foxp3 Buffer Set according to the manufacturer's instructions. IFN-γ, perforin, and granzyme B were detected by intracellular staining using the BD Cytofix/Cytoperm™ Kit following the manufacturer's instructions. […]

| SMILES | proliferation of normal human melanocytes or fibroblasts [1] | IC50 (EZH2 transcription) [µM] | death dependent from treatment (B16 melanoma cells; B16 experiment) | median survival (B16 melanoma cells; days from injection, treatment started at tumor volume 100 mm3, control 13 days) [days] | activity at 1 µM (A375 cells; 48 h, read-out: Proliferation (%) At 1 μM - 48 H) [%] | activity at 1 µM (A375 cells; 96 h, read-out: Proliferation (%) At 1 μM - 96 H) [%] | activity at 10 µM (A375 cells; 48 h, read-out: Proliferation (%) At 10 μM - 48 H) [%] | activity at 10 µM (A375 cells; 96 h, read-out: Proliferation (%) At 10 μM - 96 H) [%] | Viability (%) at 10 μM Melanocyte (normal human melanocyte) [%] | Viability (%) at 10 μM Fibroblast (normal human fibroblast) [%] | clinical signs of toxicity [2] | liver enzymes in the blood [2] | liver weight and systemic glycemia compared to the other mice [2] | killing of naïve CT26 cells by T-cells isolated from treated mice (CT26 cells) | growth of the CT26 tumors (CT26 colon-cancer cells) |
| --- | --- | --- | --- | --- | --- | --- | --- | --- | --- | --- | --- | --- | --- | --- | --- |
| COc1ccc(Nc2ccnc3cc(Cl)ccc23)cc1 [Compound 5, 4-((4-methoxyphenyl)amino)-7-chloroquinolinium chloride] | Neither treatment had any effect | 5 | no death dependent from compound 5 treatment was observed | 20 | 91 | 77.1 | 67.5 | 58.1 | 99.5 | 98.6 | no clinical signs of toxicity | remained in the normal range | similar | – | – |
| Nc1nccc2c1ncn2C1C=C(CO)C(O)C1O (stereo not drawn) [DZNEP] | – | – | – | – | – | – | – | – | – | – | – | – | – | more effective in killing CT26 cells | significantly reduced |

— patent US20200181089A1, “4-ANILINO-QUINOLINE COMPOUNDS AS ANTI-CANCER AGENTS” (INSERM (INSTITUT NATIONAL DE LA SANTÉ ET DE LA RECHERCHE …, priority 2016, published 2020)
